Measured values: patent US20090202494A1, “Combined use of glp-1 agonists and gastrin for regulating blood glucose levels” (priority 2004, published 2009)

Tests used:
Type in all cases: in vivo, mouse
[1] = tested on: acutely-diabetic NOD mice; assay: Example 2: pancreatic insulin levels in NOD mice
Procedure: (§1) The mice were monitored daily for urine glucose levels and weekly for FBG levels during the treatment and for an additional 6 weeks after the treatment was stopped. The pancreatic insulin levels were determined in each group as well as histological analysis of the pancreatic tissue was performed. Pancreatic tissues were fixed and stained for insulin producing cells. The beta cell mass was determined by morphometric analysis.

[2] = tested on: acutely-diabetic NOD mice; assay: Example 1: fasting blood glucose in acutely-diabetic NOD mice treated with GLP-1 or GLP-1 + Gastrin
Procedure: Female NOD mice ages 12-16 weeks were treated for 18 days only with vehicle (PBS), GLP-1 (300 μg/kg/day), or GLP-1 (300 μg/kg/day)+Gastrin (3 μg/kg/day), by injection intraperitoneally twice daily within 2 days after diabetes onset. Onset of diabetes was determined by fasting blood glucose (FBG) levels (9-15 mM compared with normal FBG <6.0 mM). The mice were monitored daily for urine glucose and weekly for FBG levels.
At the start of the treatments, fasting blood glucose levels ranged between 11-14 mM. After 18 days of treatments, FBG was 24±1 mM in vehicle-treated mice, 13±2 mM in mice treated with GLP-1 alone, and 6±1 mM in mice treated with the combination of GLP-1 and Gastrin (mean±SE, n=4 mice in treated groups; n=6 mice in the control group).
After 18 days of treatment therapy was stopped and FBG was monitored weekly for additional six weeks. […] Comparatively, the untreated group of animals had to be sacrificed due to the severity of the disease after five weeks.

[3] = tested on: acutely-diabetic NOD mice; assay: Example 2: fasting blood glucose in acutely-diabetic NOD mice, during treatment and 6 weeks after
Procedure: as §1

GLP-1(7-36) Amide, Human
effect on pancreatic insulin levels (in words) [1]: modest effect only | FBG course during six weeks after treatment was stopped ([2]; FBG monitored weekly for six weeks post treatment): transient improvement in FBG levels up to 2 weeks after the treatment was stopped | fasting blood glucose (FBG) after 18 days of treatments ([2]; female NOD mice, i.p. twice daily for 18 days, GLP-1 300 μg/kg/day, Gastrin 3 μg/kg/day, mean±SE, n=4, normal FBG <6.0 mM): 13 ± 2 mM | fasting blood glucose after 18 days of daily treatments ([3]; NOD mice, i.p. twice daily, combination printed as 30 μg/kg/day of GLP-1 and 3 μg/kg/day of G1): 12.5 ± 2.2 mM | maximal blood glucose levels reached post treatment ([3]; after treatments stopped, animals suffering from diabetic complications): over 30 mM
